Laboratory results from US5646172A, “Method of inducing antiandrogenic activity using imidazolidines substituted with a heterocycle” (Roussel Uclaf, priority 1994, dated 1997).

Target: T1, androgen receptor (Rattus norvegicus, UniProt P15207)
T1 construct: from tissue; host or cells: prostate cytosol (209,000 g supernatant) of male Sprague Dawley rats castrated 24 hours previously
T1 sequence (P15207 1-902): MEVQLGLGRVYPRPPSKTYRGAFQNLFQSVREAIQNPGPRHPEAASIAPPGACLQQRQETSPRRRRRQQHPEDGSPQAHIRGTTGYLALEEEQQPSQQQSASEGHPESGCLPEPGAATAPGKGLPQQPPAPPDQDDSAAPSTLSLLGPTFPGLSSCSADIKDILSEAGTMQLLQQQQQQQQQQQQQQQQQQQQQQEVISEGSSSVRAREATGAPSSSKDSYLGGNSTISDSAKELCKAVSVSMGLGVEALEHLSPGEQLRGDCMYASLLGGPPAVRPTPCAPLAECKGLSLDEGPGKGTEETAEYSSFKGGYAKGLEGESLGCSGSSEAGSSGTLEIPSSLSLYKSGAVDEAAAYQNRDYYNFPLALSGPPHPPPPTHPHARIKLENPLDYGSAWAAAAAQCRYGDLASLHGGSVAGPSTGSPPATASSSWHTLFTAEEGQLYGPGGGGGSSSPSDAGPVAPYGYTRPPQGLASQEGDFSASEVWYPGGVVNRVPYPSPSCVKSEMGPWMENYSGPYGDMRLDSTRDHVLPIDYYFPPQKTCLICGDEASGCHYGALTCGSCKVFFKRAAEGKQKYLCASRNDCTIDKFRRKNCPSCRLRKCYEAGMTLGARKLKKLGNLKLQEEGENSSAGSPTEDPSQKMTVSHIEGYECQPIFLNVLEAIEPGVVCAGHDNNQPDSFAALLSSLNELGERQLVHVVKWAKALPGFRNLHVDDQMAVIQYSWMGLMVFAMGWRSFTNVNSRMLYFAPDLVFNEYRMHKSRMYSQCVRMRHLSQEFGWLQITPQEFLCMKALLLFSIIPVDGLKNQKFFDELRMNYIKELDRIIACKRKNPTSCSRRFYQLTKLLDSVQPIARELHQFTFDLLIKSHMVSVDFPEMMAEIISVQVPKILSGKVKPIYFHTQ
Assay: Affinity of the products for the androgen receptor (relative bond affinity, displacement of tritiated testosterone in prostate cytosol)
Assay type: binding
Protocol: Study of the affinity of the products for the androgen receptor
Calculation of the relative bond affinity (RBA).
The following 2 curves were drawn: the percentage of bound tritiated hormone B/T as a function of the logarithm of the concentration of the unlabelled reference hormone and B/T as a function of the logarithm of the concentration of the unlabelled tested product. The straight line of the equation I50 =(B/Tmax+B/Tmin)/2 was determined.
B/T max=% of the bound tritiated hormone for an incubation of this tritiated hormone at the concentration (T).
B/T min=% of the bound tritiated hormone for an incubation of this tritiated hormone at the concentration (T) in the presence of a large excess of unlabelled hormone (2500.10^-9 M).
The intersections of the straight line I50 and the curves allowed the evaluation of the concentrations of the unlabelled reference hormone (CH) and of the tested unlabelled product (CX) which inhibit by 50% the binding of the tritiated hormone on the receptor.

Compound | RBA: Incubation 24 hours
N#Cc1ccc(N2C(=O)N(CCCCO)C3(CCOCC3)C2=O)cc1C(F)(F)F [Example 3, 4-(2,4-dioxo-1-(4-hydroxybutyl)-8-oxa-1,3-diazaspiro[4.5]decan-3-yl)-2-(trifluoromethyl)-benzonitrile] | 6
N#CCN1C(=O)N(c2ccc(C#N)c(C(F)(F)F)c2)C(=O)C12CCOCC2 [Example 10, 3-(4-cyano-3-(trifluoromethyl)-phenyl)-2,4-dioxo-8-oxa-1,3-diazaspiro[4.5]decan-1-acetonitrile] | 5
